Like-named read-outs stand apart in the source and are kept apart here.
System: A. non-baumannii isolates (n = 87)
Assay: MIC, broth microdilution (EUCAST), A. non-baumannii isolates
Assay type: cell-based, Acinetobacter spp. (non-baumannii)
Excerpt: The bacterial strains used in this study comprised 208 clinical isolates from the Spanish National Acinetobacter spp. 2020 Multicenter Collection, which was previously characterized in detail by our research group, including whole-genome sequencing, phylogenetics studies, clonal dynamics, and resistance mechanisms ([2], [29]). Additionally, a collection of A. baumannii ATCC 17978 transformants coding the blaOXA-23, blaOXA-24/40, blaOXA-51, blaOXA-58, blaOXA-143, and blaOXA-201 genes, previously constructed and described by our group ([30]), was used to determine the activity of enmetazobactam against strains carrying the main CHDLs of A. baumannii.
The antimicrobial susceptibility of the 208 Acinetobacter spp. isolates was assessed using the broth microdilution method, as described in the European Committee on Antimicrobial Susceptibility Testing (EUCAST) v.15 guidelines (http://www.eucast.org/clinical_breakpoints). […] MICs for enmetazobactam alone were assessed as well. […] Subsequently, MIC testing was also conducted with a collection of A. baumannii ATCC 17978 transformants expressing clinically relevant OXA-like carbapenemase genes.
The A. baumannii ATCC 19606 strain was used as the reference strain in all susceptibility experiments, in duplicate assays. Antibiotics were purchased from Sigma-Aldrich, except enmetazobactam and durlobactam, which were obtained from Advanz Pharma and MedChemExpress, respectively.

C[n+]1ccn(C[C@@]2(C)[C@H](C(=O)[O-])N3C(=O)C[C@H]3S2(=O)=O)n1 [enmetazobactam]
8 µg/mL: MIC (Acinetobacter calcoaceticus, isolate NO-Ab161, Acinetobacter calcoaceticus, in combinations ETZ fixed at 8 mg/L, read-out: MIC)
1 µg/mL: MIC (Acinetobacter bereziniae, isolate NO-Ab70, Acinetobacter bereziniae, in combinations ETZ fixed at 8 mg/L, read-out: MIC) | MIC (Acinetobacter bereziniae, isolate NO-Ab84, Acinetobacter bereziniae, in combinations ETZ fixed at 8 mg/L, read-out: MIC) | MIC (Acinetobacter bereziniae, isolate NO-Ab104, Acinetobacter bereziniae, in combinations ETZ fixed at 8 mg/L, read-out: MIC) | MIC (Acinetobacter bereziniae, isolate NO-Ab114, Acinetobacter bereziniae, in combinations ETZ fixed at 8 mg/L, read-out: MIC) | MIC (Acinetobacter bereziniae, isolate NO-Ab115, Acinetobacter bereziniae, in combinations ETZ fixed at 8 mg/L, read-out: MIC) | MIC (Acinetobacter bereziniae, isolate NO-Ab116, Acinetobacter bereziniae, in combinations ETZ fixed at 8 mg/L, read-out: MIC) | MIC (Acinetobacter bereziniae, isolate NO-Ab129, Acinetobacter bereziniae, in combinations ETZ fixed at 8 mg/L, read-out: MIC) | MIC (Acinetobacter courvalinii, isolate NO-Ab216, Acinetobacter courvalinii, in combinations ETZ fixed at 8 mg/L, read-out: MIC) | MIC (Acinetobacter haemolyticus, isolate NO-Ab92, Acinetobacter haemolyticus, in combinations ETZ fixed at 8 mg/L) | MIC (Acinetobacter haemolyticus, isolate NO-Ab177, Acinetobacter haemolyticus, in combinations ETZ fixed at 8 mg/L) | MIC (Acinetobacter lactucae, isolate NO-Ab125, Acinetobacter dijkshoorniae, in combinations ETZ fixed at 8 mg/L, read-out: MIC)
0.5 µg/mL: MIC (Acinetobacter haemolyticus, isolate NO-Ab217, Acinetobacter haemolyticus, in combinations ETZ fixed at 8 mg/L)
0: MIC distribution 0.12
2 µg/mL: MIC (Acinetobacter baylyi, isolate NO-Ab27, Acinetobacter baylyi, in combinations ETZ fixed at 8 mg/L, read-out: MIC) | MIC (Acinetobacter beijerinckii, isolate NO-Ab122, Acinetobacter beijerinckii, in combinations ETZ fixed at 8 mg/L, read-out: MIC) | MIC (Acinetobacter bereziniae, isolate NO-Ab117, Acinetobacter bereziniae, in combinations ETZ fixed at 8 mg/L, read-out: MIC) | MIC (Acinetobacter calcoaceticus, isolate NO-Ab94, Acinetobacter calcoaceticus, in combinations ETZ fixed at 8 mg/L, read-out: MIC) | MIC (Acinetobacter dispersus, isolate NO-Ab2, Acinetobacter dispersus, in combinations ETZ fixed at 8 mg/L, read-out: MIC) | MIC (Acinetobacter guillouiae, isolate NO-Ab69, Acinetobacter guillouiae, in combinations ETZ fixed at 8 mg/L, read-out: MIC) | MIC (Acinetobacter guillouiae, isolate NO-Ab74, Acinetobacter guillouiae, in combinations ETZ fixed at 8 mg/L, read-out: MIC) | MIC (Acinetobacter junii, isolate NO-Ab76, Acinetobacter junii, in combinations ETZ fixed at 8 mg/L, read-out: MIC) | MIC (Acinetobacter junii, isolate NO-Ab77, Acinetobacter junii, OXA-24/40, in combinations ETZ fixed at 8 mg/L, read-out: MIC) | MIC (Acinetobacter lactucae, isolate NO-Ab86, Acinetobacter dijkshoorniae, in combinations ETZ fixed at 8 mg/L, read-out: MIC) | MIC (Acinetobacter lactucae, isolate NO-Ab88, Acinetobacter dijkshoorniae, in combinations ETZ fixed at 8 mg/L, read-out: MIC) | MIC (Acinetobacter lactucae, isolate NO-Ab91, Acinetobacter dijkshoorniae, in combinations ETZ fixed at 8 mg/L, read-out: MIC) | MIC (Acinetobacter lactucae, isolate NO-Ab121, Acinetobacter dijkshoorniae, in combinations ETZ fixed at 8 mg/L, read-out: MIC) | MIC (Acinetobacter nosocomialis, isolate NO-Ab43, Acinetobacter nosocomialis, in combinations ETZ fixed at 8 mg/L, read-out: MIC) | MIC (Acinetobacter nosocomialis, isolate NO-Ab98, Acinetobacter nosocomialis, in combinations ETZ fixed at 8 mg/L, read-out: MIC) | MIC (Acinetobacter nosocomialis, isolate NO-Ab208, Acinetobacter nosocomialis, in combinations ETZ fixed at 8 mg/L, read-out: MIC) | MIC (Acinetobacter pittii, MBC set, isolate NO-Ab89, A. pittii, read-out: MIC) | MIC (Acinetobacter pittii, isolate NO-Ab59, Acinetobacter pittii, in combinations ETZ fixed at 8 mg/L, read-out: MIC) | MIC (Acinetobacter pittii, isolate NO-Ab66, Acinetobacter pittii, in combinations ETZ fixed at 8 mg/L, read-out: MIC) | MIC (Acinetobacter pittii, isolate NO-Ab73, Acinetobacter pittii, in combinations ETZ fixed at 8 mg/L, read-out: MIC) | MIC (Acinetobacter pittii, isolate NO-Ab75, Acinetobacter pittii, in combinations ETZ fixed at 8 mg/L, read-out: MIC) | MIC (Acinetobacter pittii, isolate NO-Ab78, Acinetobacter pittii, in combinations ETZ fixed at 8 mg/L, read-out: MIC) | MIC (Acinetobacter pittii, isolate NO-Ab82, Acinetobacter pittii, in combinations ETZ fixed at 8 mg/L, read-out: MIC) | MIC (Acinetobacter pittii, isolate NO-Ab89, Acinetobacter pittii, in combinations ETZ fixed at 8 mg/L, read-out: MIC) | MIC (Acinetobacter pittii, isolate NO-Ab90, Acinetobacter pittii, in combinations ETZ fixed at 8 mg/L, read-out: MIC)
4 µg/mL: MIC (Acinetobacter bereziniae, isolate NO-Ab156, Acinetobacter bereziniae, in combinations ETZ fixed at 8 mg/L, read-out: MIC) | MIC (Acinetobacter calcoaceticus, isolate NO-Ab85, Acinetobacter calcoaceticus, in combinations ETZ fixed at 8 mg/L, read-out: MIC) | MIC (Acinetobacter calcoaceticus, isolate NO-Ab108, Acinetobacter calcoaceticus, in combinations ETZ fixed at 8 mg/L, read-out: MIC) | MIC (Acinetobacter calcoaceticus, isolate NO-Ab198, Acinetobacter calcoaceticus, in combinations ETZ fixed at 8 mg/L, read-out: MIC) | MIC (Acinetobacter calcoaceticus, isolate NO-Ab205, Acinetobacter calcoaceticus, in combinations ETZ fixed at 8 mg/L, read-out: MIC) | MIC (Acinetobacter calcoaceticus, isolate NO-Ab211, Acinetobacter calcoaceticus, in combinations ETZ fixed at 8 mg/L, read-out: MIC) | MIC (Acinetobacter johnsonii, isolate NO-Ab101, Acinetobacter johnsonii, in combinations ETZ fixed at 8 mg/L, read-out: MIC) | MIC (Acinetobacter lactucae, isolate NO-Ab60, Acinetobacter dijkshoorniae, in combinations ETZ fixed at 8 mg/L, read-out: MIC) | MIC (Acinetobacter lactucae, isolate NO-Ab63, Acinetobacter dijkshoorniae, in combinations ETZ fixed at 8 mg/L, read-out: MIC) | MIC (Acinetobacter lactucae, isolate NO-Ab65, Acinetobacter dijkshoorniae, in combinations ETZ fixed at 8 mg/L, read-out: MIC) | MIC (Acinetobacter lactucae, isolate NO-Ab160, Acinetobacter dijkshoorniae, in combinations ETZ fixed at 8 mg/L, read-out: MIC)
16 µg/mL: MIC (Acinetobacter nosocomialis, isolate NO-Ab68, Acinetobacter nosocomialis, OXA-24/40, in combinations ETZ fixed at 8 mg/L, read-out: MIC)

— article PMC12888861, “Antibacterial activity of enmetazobactam against Acinetobacter spp.: a molecular dissection of mechanism of action and resistance determinants” (Antimicrobial Agents and Chemotherapy, 2025)
